The results in this text go back to ChEMBL document CHEMBL1201862, “PubChem BioAssay data set” (2004).

SMILES strings stand for the structures.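 1) Cells in 96-well plates. 2) Compound, 48 h, 5 concentrations. 3) Linear interpolation between surrounding doses. 4) Unreached endpoint = highest concentration. At the GI50, growth is halved.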 Activity calls are given as the source filed them. Rule as the data show it: active = GI50 up to about 1.1 µM and inactive = higher.

Among the test systems are HOP-92; LOX IMVI; DMS-114; CCRF-CEM; OVCAR-8; SF-539; RXF 393; M19-MEL; CAKI-1; K562; OVCAR-3; SNB-19; HCT-15; SNB-78; HL-60; DMS-273; COLO 205; SK-MEL-5; HT-29; RPMI-8226.
Common to all, as to test: growth of human tumour cells (NCI), 48 h

With `COC(=O)[C@@H](O)[C@](O)(CCC(C)C)C(=O)O[C@@H]1C(OC)=C[C@]23CCCN2CCc2cc4c(cc2[C@H]13)OCO4`, the GI50 in the assay with HOP-92 is 1.05 µM (active); with LOX IMVI, 0.562 µM (active); in the assay on DMS-114 it was 0.265 µM (active); in the assay with CCRF-CEM it was 1.51 µM (inactive); with OVCAR-8, 1.88 µM (inactive); in the assay on SF-539, 0.673 µM (active). In addition, the GI50 was 0.689 µM (active) in the assay with RXF 393; 1.18 µM (inactive) in the assay on M19-MEL; 1.77 µM (inactive) with CAKI-1; 0.659 µM (active) in the assay on K562; 1.24 µM (inactive) in the assay on OVCAR-3; 0.373 µM (active) in the assay on SNB-19. In addition, the GI50 with HCT-15 is 1.68 µM; with SNB-78, 2.59 µM (inactive); in the assay with HL-60, 0.349 µM (active); in the assay with DMS-273, 0.585 µM (active); in the assay on COLO 205 it was 1.29 µM (inactive); with SK-MEL-5, 1.48 µM (inactive). The GI50 in the assay on HT-29 is 0.891 µM (active); in the assay with RPMI-8226, 1.34 µM (inactive).

Take `CC(C)C1=CC2=CC[C@@H]3[C@](C)(CCC[C@@]3(C)C(=O)O)[C@H]2CC1` [ABIETIC ACID]: the GI50 in the assay on HOP-92 is 37.2 µM (inactive); with LOX IMVI it was 58.6 µM (inactive); with DMS-114, 58.9 µM (inactive); in the assay with CCRF-CEM it was 42.9 µM (inactive); in the assay on OVCAR-8, > 56.9 µM (inactive); with SF-539, > 70.8 µM (inactive). Besides, the GI50 is > 62.1 µM (inactive) in the assay with RXF 393; 59 µM (inactive) in the assay with M19-MEL; 36.2 µM (inactive) in the assay on CAKI-1; > 53 µM (inactive) with K562; 35.7 µM (inactive) in the assay with OVCAR-3; > 67.1 µM (inactive) in the assay with SNB-19. Besides, the GI50 is 43.4 µM with HCT-15; 59.7 µM (inactive) in the assay on SNB-78; > 50.5 µM (inactive) with HL-60; 48.1 µM (inactive) in the assay with DMS-273; 40.3 µM (inactive) with COLO 205; 60.5 µM (inactive) in the assay with SK-MEL-5. Also, the GI50 in the assay with HT-29 is 30.1 µM (inactive); in the assay on RPMI-8226, > 46.6 µM (inactive).

`CSCSCC(CO)NC(=O)/C=C\c1c(C)[nH]c(=O)[nH]c1=O` (stereo not given): the GI50 is 0.838 µM (active) in the assay on HOP-92; 14.1 µM (inactive) in the assay on LOX IMVI; 5.56 µM (inactive) in the assay on DMS-114; 2.27 µM (inactive) in the assay with CCRF-CEM; 10 µM (inactive) in the assay with OVCAR-8; 32.9 µM (inactive) with SF-539. For the same compound, the GI50 with RXF 393 was 26.5 µM (inactive); in the assay with M19-MEL it was 9.75 µM (inactive); with CAKI-1 it was 2.88 µM (inactive); in the assay on K562 it was 5.2 µM (inactive); with OVCAR-3, 1.79 µM (inactive); in the assay on SNB-19, 14.7 µM (inactive). Besides, the GI50 in the assay with HCT-15 is 17.9 µM; in the assay on SNB-78 it was 34.4 µM (inactive); with HL-60 it was 9.51 µM (inactive); in the assay with DMS-273 it was 37.8 µM (inactive); with COLO 205, 8.79 µM (inactive); with SK-MEL-5 it was 21.5 µM (inactive). Moreover, the GI50 in the assay with HT-29 was 19.3 µM (inactive); with RPMI-8226, 51.5 µM (inactive).

In the case of `NC(=O)C(=O)N/N=C1/c2ccccc2CC1C1(O)C(=O)Nc2c(Cl)cc(Cl)cc21` (stereo not given), the GI50 with HOP-92 was > 100 µM (inactive); in the assay on LOX IMVI, 88.3 µM (inactive); with DMS-114 it was > 100 µM (inactive); with CCRF-CEM, 61.5 µM (inactive); with OVCAR-8 it was > 100 µM (inactive); in the assay with SF-539, > 100 µM (inactive). Further, the GI50 in the assay with RXF 393 was 92 µM (inactive); with M19-MEL, > 100 µM (inactive); in the assay with CAKI-1 it was 81.8 µM (inactive); in the assay with K562, 88.7 µM (inactive); with OVCAR-3 it was > 100 µM (inactive); with SNB-19, > 100 µM (inactive). Moreover, the GI50 was more than 100 µM with HCT-15; > 100 µM (inactive) in the assay with SNB-78; > 100 µM (inactive) in the assay on HL-60; > 100 µM (inactive) with DMS-273; > 100 µM (inactive) with COLO 205; > 100 µM (inactive) in the assay on SK-MEL-5. The GI50 in the assay with HT-29 and in the assay with RPMI-8226 was > 100 µM (inactive) in each case.

Take `CC(=O)OC1C=C(C=O)C(O)(C=O)C2(C)CCCC(C)(C)C12` (stereo not given): the GI50 in the assay on HOP-92 was 1.05 µM (active); in the assay on LOX IMVI, 0.942 µM (active); with DMS-114 it was 0.927 µM (active); in the assay on CCRF-CEM it was 0.238 µM (active); in the assay with OVCAR-8 it was 1.24 µM (inactive); with SF-539 it was 2.4 µM (inactive). The GI50 with RXF 393 is 0.491 µM (active); with M19-MEL, 1.23 µM (inactive); in the assay on CAKI-1, 1 µM (active); in the assay on K562, 0.809 µM (active); with OVCAR-3 it was 0.693 µM (active); with SNB-19 it was 5.6 µM (inactive). The GI50 in the assay on HCT-15 is 0.6 µM; in the assay on SNB-78, 2.67 µM (inactive); in the assay with HL-60 it was 0.249 µM (active); in the assay with DMS-273, 2.08 µM (inactive); in the assay with COLO 205, 0.859 µM (active); with SK-MEL-5 it was 1.17 µM (inactive). In addition, the GI50 in the assay with HT-29 is 1.39 µM (inactive); in the assay with RPMI-8226, 0.519 µM (active).
